The values below come from patent US10004701B2, “Methods and compositions for treating infection” (UNIVERSITY OF ROCHESTER, priority 2012, dated 2018).

Holding throughout (assay): AK assay 384-well format, Prestwick library screening
For experiment [1], the system named is A. baumannii strain 98-37-09. The experiment is classed as cell-based, Acinetobacter baumannii. As to conditions: 50 μM final drug concentration; for fold induction at 50 µM: Acinetobacter baumannii, 983709, 3 h; for AK-based Prestwick Library Screening Results, A. baumannii (fold increase in extracellular AK activity): planktonic.
Experiment [2] has as its system P. aeruginosa. Type of experiment: cell-based, Pseudomonas aeruginosa. The note with it: 50 μM final drug concentration; for fold induction at 50 µM: Pseudomonas aeruginosa, 3 h; for AK-based Prestwick Library Screening Results, P. aeruginosa (fold increase in extracellular AK activity): planktonic.
The test system of experiment [3] is K. pneumoniae. The experiment is classed as cell-based, Klebsiella pneumoniae. The note with it: 50 μM final drug concentration; for fold induction at 50 µM: Klebsiella pneumoniae, 3 h; for AK-based Prestwick Library Screening Results, K. pneumoniae (fold increase in extracellular AK activity): planktonic.
The test system of experiment [4] is E. faecium. The experiment is classed as cell-based, Enterococcus faecium. The note with it: 50 μM final drug concentration; for fold induction at 50 µM: Enterococcus faecium, 3 h; for AK-based Prestwick Library Screening Results, E. faecium (fold increase in extracellular AK activity): planktonic.
Experiment [5] has as its system E. coli. The experiment is classed as cell-based, Escherichia coli. As to conditions: 50 μM final drug concentration; for fold induction at 50 µM: Escherichia coli, 3 h; for AK-based Prestwick Library Screening Results, E. coli (fold increase in extracellular AK activity): planktonic.
Experiment [6] relates to S. aureus strain USA300-0114. The experiment is classed as cell-based, Staphylococcus aureus. The note with it: 50 μM final drug concentration; for fold induction at 50 µM: Staphylococcus aureus, USA300, 3 h; for AK-based Prestwick Library Screening Results, S. aureus (fold increase in extracellular AK activity): planktonic.
The subject of experiment [7] is E. cloacae. The experiment is classed as cell-based, Enterobacter cloacae. As to conditions: 50 μM final drug concentration; for fold induction at 50 µM: Enterobacter cloacae, 3 h; for AK-based Prestwick Library Screening Results, E. cloacae (fold increase in extracellular AK activity): planktonic.
Where [8] appears, read: planktonic A. baumannii, 384-well, cutoff for positive-scoring molecules 3-fold increase, read-out: AK-based Prestwick Library Screening Results: A. baumannii (increase in extracellular AK activity).
The mark [9] stands for this setting: planktonic P. aeruginosa, 384-well, cutoff for positive-scoring molecules 3-fold increase, read-out: AK-based Prestwick Library Screening Results: P. aeruginosa (increase in extracellular AK activity).
Setting [10] is: planktonic K. pneumoniae, 384-well, cutoff for positive-scoring molecules 3-fold increase, read-out: AK-based Prestwick Library Screening Results: K. pneumoniae (increase in extracellular AK activity).
[11] abbreviates: planktonic E. faecium, 384-well, cutoff for positive-scoring molecules 3-fold increase, read-out: AK-based Prestwick Library Screening Results: E. faecium (increase in extracellular AK activity).
The mark [12] stands for this setting: planktonic E. coli, 384-well, cutoff for positive-scoring molecules 3-fold increase, read-out: AK-based Prestwick Library Screening Results: E. coli (increase in extracellular AK activity).
Where [13] appears, read: planktonic S. aureus, 384-well, cutoff for positive-scoring molecules 3-fold increase, read-out: AK-based Prestwick Library Screening Results: S. aureus (increase in extracellular AK activity).
[14] abbreviates: planktonic E. cloacae, 384-well, cutoff for positive-scoring molecules 3-fold increase, read-out: AK-based Prestwick Library Screening Results: E. cloacae (increase in extracellular AK activity).
[15] abbreviates: cutoff for positive-scoring molecules 3-fold increase.
[16] abbreviates: 384-well format, cutoff for positive-scoring molecules 3-fold increase, read-out: AK-based Prestwick Library Screening Results, A. baumannii (increase in extracellular AK activity).
The mark [17] stands for this setting: 384-well format, cutoff for positive-scoring molecules 3-fold increase, read-out: AK-based Prestwick Library Screening Results, P. aeruginosa (increase in extracellular AK activity).
Setting [18] is: 384-well format, cutoff for positive-scoring molecules 3-fold increase, read-out: AK-based Prestwick Library Screening Results, K. pneumoniae (increase in extracellular AK activity).
[19] abbreviates: 384-well format, cutoff for positive-scoring molecules 3-fold increase, read-out: AK-based Prestwick Library Screening Results, E. faecium (increase in extracellular AK activity).
Setting [20] is: 384-well format, cutoff for positive-scoring molecules 3-fold increase, read-out: AK-based Prestwick Library Screening Results, E. coli (increase in extracellular AK activity).
[21] abbreviates: 384-well format, cutoff for positive-scoring molecules 3-fold increase, read-out: AK-based Prestwick Library Screening Results, S. aureus (increase in extracellular AK activity).
Setting [22] is: 384-well format, cutoff for positive-scoring molecules 3-fold increase, read-out: AK-based Prestwick Library Screening Results, E. cloacae (increase in extracellular AK activity).

Counter-ions that a name gives are not always drawn. Like-named read-outs stand apart in the source and are kept apart here.

Take `CCCNCC(O)COc1ccccc1C(=O)CCc1ccccc1` (stereo not shown) [Propafenone hydrochloride]: the fold induction at 50 µM in experiment [1] (planktonic A. baumannii, cutoff for positive-scoring molecules 3-fold increase, read-out: AK-based Prestwick Library Screening Results, A. baumannii (increase in extracellular AK activity)) was found to be 0.7; in experiment [2] (planktonic P. aeruginosa, cutoff for positive-scoring molecules 3-fold increase, read-out: AK-based Prestwick Library Screening Results, P. aeruginosa (increase in extracellular AK activity)), 0.7; in experiment [3] (planktonic K. pneumoniae, cutoff for positive-scoring molecules 3-fold increase, read-out: AK-based Prestwick Library Screening Results, K. pneumoniae (increase in extracellular AK activity)) it was 0.6; in experiment [4] (planktonic E. faecium, cutoff for positive-scoring molecules 3-fold increase, read-out: AK-based Prestwick Library Screening Results, E. faecium (increase in extracellular AK activity)) it was 1; in experiment [5] (planktonic E. coli, cutoff for positive-scoring molecules 3-fold increase, read-out: AK-based Prestwick Library Screening Results, E. coli (increase in extracellular AK activity)), 1; in experiment [6] (planktonic S. aureus, cutoff for positive-scoring molecules 3-fold increase, read-out: AK-based Prestwick Library Screening Results, S. aureus (increase in extracellular AK activity)), 0.7. Further, in experiment [7] (planktonic E. cloacae, cutoff for positive-scoring molecules 3-fold increase, read-out: AK-based Prestwick Library Screening Results, E. cloacae (increase in extracellular AK activity)), the fold induction at 50 µM was determined as 0.8.

Consider `O=C1NCC2(CCN(CCc3ccccc3)CC2)O1` [Fenspiride hydrochloride], for which the fold induction at 50 µM amounted to 1.2 in experiment [1] (setting [8]); 1.1 in experiment [2] (setting [9]); 1 in experiment [3] (setting [10]); 1 in experiment [4] (setting [11]); 1.3 in experiment [5] (setting [12]); 1.1 in experiment [6] (setting [13]). The fold induction at 50 µM in experiment [7] (setting [14]) was 1.6.

On to `CCN1C[C@]2(COC)CC[C@H](O)[C@@]34C5C[C@@H]6[C@@H](OC)C[C@](O)(C(CC23)C14)C5[C@H]6OC(C)=O` (stereo partly shown) [Condelphine], for which the fold induction at 50 µM in experiment [1] (planktonic A. baumannii, […], read-out: AK-based Prestwick library screening result, A. baumannii (fold increase in extracellular AK activity)) is 1.1; in experiment [2] (planktonic P. aeruginosa, […], read-out: AK-based Prestwick library screening result, P. aeruginosa (fold increase in extracellular AK activity)), 1; in experiment [3] (planktonic K. pneumoniae, […], read-out: AK-based Prestwick library screening result, K. pneumoniae (fold increase in extracellular AK activity)) it was 1; in experiment [4] (planktonic E. faecium, […], read-out: AK-based Prestwick library screening result, E. faecium (fold increase in extracellular AK activity)), 1.1; in experiment [5] (planktonic E. coli, […], read-out: AK-based Prestwick library screening result, E. coli (fold increase in extracellular AK activity)), 1.1; in experiment [6] (planktonic S. aureus, […], read-out: AK-based Prestwick library screening result, S. aureus (fold increase in extracellular AK activity)), 1.1. The fold induction at 50 µM in experiment [7] (planktonic E. cloacae, […], read-out: AK-based Prestwick library screening result, E. cloacae (fold increase in extracellular AK activity)) worked out at 1.2.

As to `O.Oc1cc(O)c2c(c1)OC(c1ccc(O)c(O)c1)C(O)C2` (racemic) [Catechin-(+,−) hydrate], the “AK-based Prestwick Library Screening Results, A. baumannii (fold increase in extracellular AK activity)” value in experiment [1] (setting [15]) came out at 0.7. Further, the “AK-based Prestwick Library Screening Results, P. aeruginosa (fold increase in extracellular AK activity)” value in experiment [2] (setting [15]) is on record as 0.6. In addition, in experiment [3] (setting [15]), the “AK-based Prestwick Library Screening Results, K. pneumoniae (fold increase in extracellular AK activity)” value was 0.6. The “AK-based Prestwick Library Screening Results, E. faecium (fold increase in extracellular AK activity)” value in experiment [4] (setting [15]) is recorded as 0.9. Also, in experiment [5] (setting [15]), the “AK-based Prestwick Library Screening Results, E. coli (fold increase in extracellular AK activity)” value worked out at 0.7. For the same molecule, the “AK-based Prestwick Library Screening Results, S. aureus (fold increase in extracellular AK activity)” value in experiment [6] (setting [15]) was determined as 0.7. For the same molecule, the “AK-based Prestwick Library Screening Results, E. cloacae (fold increase in extracellular AK activity)” value in experiment [7] (setting [15]) stood at 1.0.

Regarding `CC(C)NC[C@@H](O)c1ccc(O)c(O)c1.O=C(O)C(O)C(O)C(=O)O` [(+)-Isoproterenol (+)-bitartrate salt], in experiment [1] (setting [15]), the “AK-based Prestwick Library Screening Results, A. baumannii (fold increase in extracellular AK activity)” value worked out at 0.8. Further, the “AK-based Prestwick Library Screening Results, P. aeruginosa (fold increase in extracellular AK activity)” value in experiment [2] (setting [15]) is reported as 0.8. Further, the “AK-based Prestwick Library Screening Results, K. pneumoniae (fold increase in extracellular AK activity)” value in experiment [3] (setting [15]) is 1.0. Besides, the “AK-based Prestwick Library Screening Results, E. faecium (fold increase in extracellular AK activity)” value in experiment [4] (setting [15]) is on record as 0.9. Further, the “AK-based Prestwick Library Screening Results, E. coli (fold increase in extracellular AK activity)” value in experiment [5] (setting [15]) turned out to be 0.9. In experiment [6] (setting [15]), the “AK-based Prestwick Library Screening Results, S. aureus (fold increase in extracellular AK activity)” value came to 0.8. Also, the “AK-based Prestwick Library Screening Results, E. cloacae (fold increase in extracellular AK activity)” value in experiment [7] (setting [15]) is recorded as 1.4.

For the molecule `COc1ccc(CCN2CCC(Nc3nc4ccccc4n3Cc3ccc(F)cc3)CC2)cc1` [Astemizole], the fold induction at 50 µM worked out at 1.6 in experiment [1] (setting [8]); 1 in experiment [2] (setting [9]); 1.1 in experiment [3] (setting [10]); 1 in experiment [4] (setting [11]); 1.3 in experiment [5] (setting [12]); 2.2 in experiment [6] (setting [13]). The fold induction at 50 µM in experiment [7] (setting [14]) was determined as 1.6.

`Cc1ncc([N+](=O)[O-])n1CCO` [Metronidazole]: the fold induction at 50 µM was 0.4 in experiment [1] (setting [16]); 0.3 in experiment [2] (setting [17]); 0.4 in experiment [3] (setting [18]); 0.8 in experiment [4] (setting [19]); 0.4 in experiment [5] (setting [20]); 0.4 in experiment [6] (setting [21]). Moreover, the fold induction at 50 µM in experiment [7] (setting [22]) was 0.3.

Turning to `C#C[C@]1(O)CC[C@H]2[C@@H]3CCC4=Cc5oncc5C[C@]4(C)[C@H]3CC[C@@]21C` [Danazol], the fold induction at 50 µM in experiment [1] (setting [16]) was 0.9; in experiment [2] (setting [17]) it was 0.8; in experiment [3] (setting [18]) it was 0.6; in experiment [4] (setting [19]) it was 0.9; in experiment [5] (setting [20]) it was 0.7; in experiment [6] (setting [21]) it was 0.6. Moreover, in experiment [7] (setting [22]), the fold induction at 50 µM came to 0.9.

Dihydroergotamine tartrate: the “AK-based Prestwick Library Screening Results: A. baumannii (increase in extracellular AK activity)” value in experiment [1] (planktonic A. baumannii, 384-well, cutoff for positive-scoring molecules 3-fold increase) came to 1.5. Further, the “AK-based Prestwick Library Screening Results: P. aeruginosa (increase in extracellular AK activity)” value in experiment [2] (planktonic P. aeruginosa, 384-well, cutoff for positive-scoring molecules 3-fold increase) was found to be 1.2. For the same molecule, in experiment [3] (planktonic K. pneumoniae, 384-well, cutoff for positive-scoring molecules 3-fold increase), the “AK-based Prestwick Library Screening Results: K. pneumoniae (increase in extracellular AK activity)” value was 0.9. Moreover, the “AK-based Prestwick Library Screening Results: E. faecium (increase in extracellular AK activity)” value in experiment [4] (planktonic E. faecium, 384-well, cutoff for positive-scoring molecules 3-fold increase) is given as 1.0. Further, the “AK-based Prestwick Library Screening Results: E. coli (increase in extracellular AK activity)” value in experiment [5] (planktonic E. coli, 384-well, […]) was 1.3. In addition, in experiment [6] (planktonic S. aureus, 384-well, cutoff for positive-scoring molecules 3-fold increase), the “AK-based Prestwick Library Screening Results: S. aureus (increase in extracellular AK activity)” value was 1.0. For the same molecule, the “AK-based Prestwick Library Screening Results: E. cloacae (increase in extracellular AK activity)” value in experiment [7] (planktonic E. cloacae, 384-well, cutoff for positive-scoring molecules 3-fold increase) came out at 1.3.

Regarding `CC(C)[C@@]1(NC(=O)[C@@H]2C[C@@H]3c4cccc5[nH]cc(c45)C[C@H]3N(C)C2)O[C@@]2(O)[C@@H]3CCCN3C(=O)[C@H](Cc3ccccc3)N2C1=O` [Dihydroergocristine mesylate], the fold induction at 50 µM in experiment [1] (setting [8]) was found to be 0.7; in experiment [2] (setting [9]), 0.6; in experiment [3] (setting [10]) it was 0.6; in experiment [4] (setting [11]), 0.9; in experiment [5] (setting [12]) it was 0.7; in experiment [6] (setting [13]), 0.5. Besides, in experiment [7] (setting [14]), the fold induction at 50 µM came to 0.6.
